Test results taken from patent US10456339B2, “Organic hydroperoxide reduction in perfumery raw materials” (FIRMENICH SA, priority 2017, dated 2019).
Several values for one entry are separate records, joined by “and”; a condition that tells them apart may be missing. Equal values may be shown once. Read-outs that look alike come from different tables or passages of the source.

Experiments:
[1] = Reduction of POV in sunflower oil using 2-oxovaleric acid; settings: 250 μL in 25 mL sunflower oil
Protocol: 25 mL of sunflower oil (from an off-the-shelf, opened 1 quart container with approximately 25% atmospheric headspace; storage time unknown) was placed in a 30 mL vial at room temperature. 250 μL of 2-oxovaleric acid was added. The vial was shaken and allowed to stand at ambient temperature in laboratory lighting on the benchtop. No further treatment was done prior to the POV testing.
POV measurements were made on the sunflower oil before and after the 2-oxovaleric acid treatment. The untreated oil was also re-measured periodically for comparison, since opening of the bottle replenishes atmospheric headspace and can cause the POV of the bottle contents to rise. The % reduction was always calculated versus the most recent POV value on the untreated oil, and if multiple measurements were made, an averaged value (shown in parentheses) was used for the calculation.

[2] = Reduction of POV in citrus oil using pyruvic acid
Protocol: 50 mL of mixed citrus oils (orange, lemon, lime, mandarin, bergamot, and tangerine) were placed in a 100 round bottom flask at room temperature, along with a stir bar and an argon gas blanket.
A 4:1 v/v isopropanol/pyruvic acid solution was made. 20 mL of this pyruvic acid solution was dripped into the stirred citrus oils at a rate of 0.25 mL/minute via the use of a syringe pump.
When the addition was complete, 10 mL of water and 100 mg of anhydrous sodium carbonate was added to the flask, and the stirring was maintained. When the visible evolution of CO2 had stopped (about 2-4 minutes), the aqueous layer was removed with a pipette and discarded. POV measurements were made on the mixed citrus oil before and after the pyruvic acid treatment.

[3] = Reduction of POV in model perfume using PhPA-DiMeC10A; settings: […] w/v; 7 days after addition
Protocol: (§1) The mixed citrus oil was loaded into the solvent at approximately 16.7% v/v (40 mL oil into 200 mL solvent, 240 mL total perfume). Approximately 164 mg (1.1% w/v) of the PhPA-DiMeC10A salt was dissolved in 15 mL of the mixed citrus perfume, and POV measurements were taken as a function of time after the addition. An untreated perfume sample was handled similarly to the treated perfume and also tested, because the POV can rise rapidly with handling of the sample (opening the bottle, agitation, etc.).

[4] = Reduction of POV in sunflower oil using DiMeC10A-PhPA; settings: for POV of treated oil: 0.3032 g in 15 mL sunflower oil
Excerpt: (§3) The mixture was allowed to stand on the benchtop in ambient laboratory light at room temperature, and POV measurements were taken periodically.

[5] = 0.3358 g in 15 mL sunflower oil; 23 days; indistinguishable from BLANK
[6] = POV of mixed citrus oil treated with AKG-DiMeC12A salt; settings: 1.0% w/v, within 72 hours (3 days) after addition
Excerpt: In addition to the treatment done in a model perfume as described above, a similar experiment was done in mixed citrus oil. A sample of mixed citrus oil was made by combining lime, orange, grapefruit, lemon, mandarin, tangerine, and bergamot oils, so that a variety of terpene hydroperoxides would be present in the treated mixture being tested. […] An untreated mixed citrus oil sample was handled similarly to the treated oil and also tested, because the POV can rise rapidly with handling of the sample (opening the bottle, agitation, etc.).

[7] = Surface tension of aqueous solution, pendant drop method; type: physicochemical; settings: 0.14 weight % solution in water; pure water 71.57 mN/m
Protocol: The measurement was made on a Kruss DSA100S Tensiometer by the pendant drop method. […] This concentration was chosen so the results could be compared to the literature value for known surfactant sodium dodecyl sulfate (SDS) at 5 mM, which is approximately 0.15 weight %.

[8] = Reduction of POV in sunflower oil using AKG-DiMeC12A; settings: for POV of treated oil: 0.3062 g in 15 mL sunflower oil
Excerpt: as §3

[9] = POV of spiked consumer product: Skin Cream; settings: 1% (w/w); for POV of treated Skin Cream: spiked with oxidized limonene
Protocol: This Example reports the treatment of exemplary consumer product formulations. […] All of the samples had not been fragranced, so the POV was be associated with autooxidized base components. The five consumer product formulations were spiked with an extremely oxidized limonene that was produced in a photoreactor as a source of mixed limonene hydroperoxide isomers (the POV was 1434 mmol/L).
Sample Preparation: 40 mL (Sample #3) or 40 g (Samples #1, 2, 4 & 5) were each spiked with 0.4 mL of oxidized limonene and mixed until homogeneous. Half of each spiked consumer product sample was transferred to a second container, and treated as described in the table below with 0.5-1% (w/w) of a 2-oxocarboxylic acid ammonium salt, then mixed to homogeneity. […]

[10] = Reduction of POV in model perfume using α-ketoglutaric acid; settings: 1.2% w/v; 24 hours after treatment
[11] = Reduction of POV in limonene using phenylglyoxylic acid; settings: 200 mg in 20 mL, room temperature
Protocol: 20 mL of autoxidized limonene was placed in a 30 mL glass vial at room temperature, along with a stir bar and an argon gas blanket. 200 mg of phenylglyoxylic acid was added, which dissolved. The vial was shaken once and allowed to stand, while being monitored for POV value as a function of time.

[12] = POV of model perfume treated with AKG DiDeanol salt; settings: 1.0% w/v
Protocol: (§2) A model perfume was made using 90/10 v/v ethanol/water as a solvent, and a mixture of orange, grapefruit, and bergamot oils as the perfume oil. The mixed citrus oil was loaded into the solvent at approximately 19.4% v/v (6 mL oil into 25 mL solvent). Approximately 200 mg (1.0% w/v) of the AKG DiDeanol salt was dissolved in 20 mL of the mixed citrus perfume, and POV measurements were taken as a function of time after the addition. An untreated perfume sample was handled similarly to the treated perfume and also tested, because the POV can rise rapidly with handling of the sample (opening the bottle, agitation, etc.).

[13] = POV of model perfume treated with AKG-mono(DiMeC12A); settings: 1.0% w/v; within 26 hours after the addition
Protocol: as §2, with “AKG-monoMeC12A” for “AKG DiDeanol”

[14] = Reduction of POV in mixed citrus oil using α-oxo-2-furanacetic acid; settings: for Treated POV: 400 mg in 20 mL mixed citrus oil; for POV reduction: vs untreated oil at same time
Protocol: 20 mL of mixed citrus oil was placed in a 30 mL glass vial at room temperature, along with a stir bar and an argon gas blanket. 400 mg of α-oxo-2-furanacetic acid was added. The vial was shaken once and allowed to stand, while being monitored for POV value as a function of time. […] In this way, the undissolved solid acts as a sink to maintain a steady, low concentration of α-oxo-2-furanacetic acid dissolved in the mixed citrus oil.
In this case, because the time between measurements was relatively long (days instead of minutes), there is the possibility that the untreated mixed citrus oil will oxidize further during the course of the experiment. Therefore, the POV of the treated oil was still compared with the POV of the untreated oil, but the measurement of the untreated oil was re-determined at each time point (rather than just a single, initial value being used).

[15] = Reduction of POV in model perfume using oxaloacetic acid; settings: 0.83% w/v; 24 hours after treatment
[16] = Reduction of POV in model perfume using AKG-HEI; settings: 1.0% w/v; 7 days after addition
Protocol: as §1, with “150” for “164”, “(1.0%” for “(1.1%”, “AKG-HEI” for “PhPA-DiMeC10A”

## CCCC(=O)C(=O)O [2-oxovaleric acid]
[1]; 23 hours
  POV, single measurements: 4.95 mmol/L and 4.67 mmol/L
[1]; 46 hours
  POV, single measurements: 5.34 mmol/L and 5.10 mmol/L
[1]; 15 days
  POV, single measurements: 2.27 mmol/L and 2.05 mmol/L and 1.99 mmol/L

## CC(=O)C(=O)O [pyruvic acid]
[2]; 50 mL mixed citrus oils, 20 mL 4:1 v/v isopropanol/pyruvic acid at 0.25 mL/minute, POV before treatment 27.261 mEq/L
  POV after treatment: 4.786 mEq./L
[2]; after vs before pyruvic acid treatment
  reduction in POV: ~82%

## CCCCCCCCCCN(C)C.O=C(O)C(=O)Cc1ccccc1 [DiMeC10A-PhPA]
[3]
  reduction in POV relative to untreated material: 87.2%
[4]; 0.3032 g in 15 mL
  solubility in sunflower oil: majority of the salt dissolved, but some undissolved solid remained
[4]; 55 minutes
  POV of treated oil: 3.78 mmol/L
  % Reduction in POV: 77.2%
[4]; 140 minutes, indistinguishable from BLANK
  POV of treated oil: 0.00 mmol/L
[4]; 1320 mins (22 hrs), indistinguishable from BLANK
  POV of treated oil: 0.00 mmol/L
[4]; 23 days, indistinguishable from BLANK
  POV of treated oil: 0.00 mmol/L
[4]; 140 minutes
  % Reduction in POV: 100%
[4]; 1320 mins (22 hrs)
  % Reduction in POV: 100%
[4]; 23 days
  % Reduction in POV: 100%

## CCCCCCCCCCN(C)C.O=C(O)C(=O)c1ccco1 [FAA-DiMeC10A]
[5]
  POV of treated oil: 0.00 mmol/L

## CCCCCCCCCCCCN(C)C.CCCCCCCCCCCCN(C)C.O=C(O)CCC(=O)C(=O)O [AKG-DiMeC12A]
[6]
  reduction in the POV: 89.0%
[7]
  surface tension: 32.08 mN/m
[8]; 50 minutes
  POV of treated oil: 15.36 mmol/L
  % Reduction in POV: 7.2%
[8]; 1320 mins (22 hrs)
  POV of treated oil: 12.68 mmol/L
  % Reduction in POV: 23.5%
[8]; 23 days
  POV of treated oil: 3.05 mmol/L
  % Reduction in POV: 83.6%
[9]; 140 minutes
  % Reduction in POV: 56.7%
  POV of treated Skin Cream: 6.06 mmol/L
[9]; 300 minutes (5 h)
  % Reduction in POV: 68.4%
  POV of treated Skin Cream: 4.5 mmol/L
[9]; 26 hrs
  % Reduction in POV: 84.6%
  POV of treated Skin Cream: 2.08 mmol/L
[9]; 4 days
  % Reduction in POV: 90.9%
  POV of treated Skin Cream: 1.16 mmol/L
[9]; 8 days
  % Reduction in POV: 93.0%
  POV of treated Skin Cream: 0.82 mmol/L
[9]; 15 days
  % Reduction in POV: 100.0%
  POV of treated Skin Cream: 0 mmol/L

## O=C(O)CCC(=O)C(=O)O [α-ketoglutaric acid]
[10]
  reduction in the POV of the formulated perfume: complete reduction

## O=C(O)C(=O)c1ccccc1 [phenylglyoxylic acid]
[11]
  solubility in autoxidized limonene: dissolved

## CN(C)CCO.CN(C)CCO.O=C(O)CCC(=O)C(=O)O [AKG DiDeanol]
[12]; 60 min
  POV Treated Perfume: 5.95 mmol/L
[12]; 75 min
  POV Treated Perfume: 5.66 mmol/L
[12]; 115 min
  POV Treated Perfume: 4.96 mmol/L
[12]; 195 min
  POV Treated Perfume: 3.20 mmol/L
[12]; 210 min
  POV Treated Perfume: 3.08 mmol/L
[12]; 300 min (5 hours)
  POV Treated Perfume: 2.31 mmol/L
[12]; 370 min
  POV Treated Perfume: 1.73 mmol/L
[12]; 380 min
  POV Treated Perfume: 1.72 mmol/L
[12]; […] (24 hours), indistinguishable from blank
  POV Treated Perfume: 0.0 indistinguishable from mmol/L

## CCCCCCCCCCCCN(C)C.O=C(O)CCC(=O)C(=O)O [AKG-mono(DiMeC12A)]
[13]
  reduction in the POV: total and complete reduction
[7]
  surface tension: 32.93 mN/m

## O=C(O)C(=O)c1ccco1 [α-Oxo-2-furanacetic acid, α-oxo-2-furanacetic acid]
[14]; 400 mg in 20 mL
  solubility in mixed citrus oil: majority of the added α-oxo-2-furanacetic acid did not dissolve
[14]; 2 days since addition
  Treated POV: 18.566 mEq/L
[14]; 4 days
  Treated POV: 17.193 mEq/L
  POV reduction: 39.8%
[14]; 44 days
  Treated POV: 1.106 mEq/L
  POV reduction: 96.2%
[14]; 2 days
  POV reduction: 26.8%

## O=C(O)CC(=O)C(=O)O [oxaloacetic acid]
[15]
  reduction in the POV of the formulated perfume: complete reduction

## O=C(O)CCC(=O)C(=O)O.O=C1NCCN1CCO.O=C1NCCN1CCO [AKG-HEI]
[16]
  reduction in POV relative to untreated material: 92.1%
